Data taken from ChEMBL document CHEMBL5696442, “Discovery of type II inhibitors of TGFβ-activated kinase 1 (TAK1) and mitogen-activated protein kinase kinase kinase kinase 2 (MAP4K2)” (J Med Chem, 2015).
Activity calls are given as the source filed them. The calls are words filed in the database; no cut-off is given here.

Key:
[1] = target: Tyrosine-protein kinase JAK3 (Homo sapiens) (UniProt P52333); assay: Inhibition of JAK3 JH1 catalytic domain (unknown origin) at 1 uM by Ambit Kinomescan binding assay relative to control
[2] = target: Cyclin-dependent kinase 2 (Homo sapiens) (UniProt P24941); assay: Inhibition of CDK2 Lys2 labeling site in human A-375 cells at 5 uM by KiNativ Profiling analysis relative to control; assay type: cell-based
[3] = target: Protein-tyrosine kinase 2-beta (Homo sapiens) (UniProt Q14289); assay: Inhibition of PYK2 (unknown origin) at 1 uM by Ambit Kinomescan binding assay relative to control
[4] = target: cGMP-dependent protein kinase 2 (Homo sapiens) (UniProt Q13237); assay: Inhibition of PRKG2 (unknown origin) at 1 uM by Ambit Kinomescan binding assay relative to control
[5] = target: T1, DNA-PK/Ku70/Ku85 (Homo sapiens) (UniProt P78527+P12956+P13010); assay: Inhibition of DNAPK ATP labeling site harbouring GHDEREHPFLVKGGEDLRQDQR in human A-375 cells at 0.05 uM by KiNativ Profiling analysis relative to control; assay type: cell-based
[6] = target: Serine/threonine-protein kinase Nek3 (Homo sapiens) (UniProt P51956); assay: Inhibition of NEK3 (unknown origin) at 1 uM by Ambit Kinomescan binding assay relative to control; values are per cent of control
[7] = target: Mitogen-activated protein kinase kinase kinase kinase 1 (Homo sapiens) (UniProt Q92918); assay: Inhibition of HPK1 (unknown origin) at 1 uM by Ambit Kinomescan binding assay relative to control; values are per cent of control
[8] = target: Receptor tyrosine-protein kinase erbB-3 (Homo sapiens) (UniProt P21860); assay: Inhibition of HER3/ErbB3 Lys1 labeling site in human A-375 cells at 5 uM by KiNativ Profiling analysis relative to control; assay type: cell-based
[9] = target: T2, Dual specificity mitogen-activated protein kinase kinase 3 (Homo sapiens) (UniProt P46734); assay: Inhibition of MAP2K3 Lys2 labeling site in human A-375 cells at 0.5 uM by KiNativ Profiling analysis relative to control; assay type: cell-based
T2 sequence (whole entry): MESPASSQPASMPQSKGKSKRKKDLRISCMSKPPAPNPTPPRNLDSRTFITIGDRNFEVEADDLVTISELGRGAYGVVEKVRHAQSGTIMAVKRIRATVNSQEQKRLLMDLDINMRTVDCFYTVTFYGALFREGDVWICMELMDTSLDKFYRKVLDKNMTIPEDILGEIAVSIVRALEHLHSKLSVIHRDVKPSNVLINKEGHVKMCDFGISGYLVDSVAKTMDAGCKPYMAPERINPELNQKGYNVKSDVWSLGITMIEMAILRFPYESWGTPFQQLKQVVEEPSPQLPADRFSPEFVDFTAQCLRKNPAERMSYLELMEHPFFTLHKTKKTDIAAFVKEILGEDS

[10] = target: Ephrin type-B receptor 3 (Homo sapiens) (UniProt P54753); assay: Inhibition of EPHB3 (unknown origin) at 10 uM by Ambit Kinomescan binding assay
[11] = target: T3, Dual specificity mitogen-activated protein kinase kinase 6 (Homo sapiens) (UniProt P52564); assay: Inhibition of MAP2K6 K2 labeling site in human Huh-7 cells at 1 uM by KiNativ Profiling analysis relative to control; assay type: cell-based
T3 sequence (whole entry): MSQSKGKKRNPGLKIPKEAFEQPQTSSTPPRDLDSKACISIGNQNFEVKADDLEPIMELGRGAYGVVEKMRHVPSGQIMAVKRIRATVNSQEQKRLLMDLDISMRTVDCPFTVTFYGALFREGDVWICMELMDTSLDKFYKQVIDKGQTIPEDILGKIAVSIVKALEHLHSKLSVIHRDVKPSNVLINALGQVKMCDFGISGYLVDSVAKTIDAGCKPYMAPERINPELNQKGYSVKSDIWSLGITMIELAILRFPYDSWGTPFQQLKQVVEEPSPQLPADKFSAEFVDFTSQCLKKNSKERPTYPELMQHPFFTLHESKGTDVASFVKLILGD

[12] = target: Dual specificity protein kinase CLK1 (Homo sapiens) (UniProt P49759); assay: Inhibition of CLK1 (unknown origin) at 10 uM by Ambit Kinomescan binding assay
[13] = target: Serine/threonine-protein kinase SIK1 (Homo sapiens) (UniProt P57059); assay: Inhibition of SIK1 K2 labeling site in human Huh-7 cells at 10 uM by KiNativ Profiling analysis relative to control; assay type: cell-based
[14] = Inhibition of Wnk1/2/4 ACT labeling site in human Huh-7 cells at 1 uM by KiNativ Profiling analysis relative to control; details: condition cancer
[15] = target: Tyrosine-protein kinase FRK (Homo sapiens) (UniProt P42685); assay: Inhibition of FRK (unknown origin) at 10 uM by Ambit Kinomescan binding assay relative to control
[16] = target: Cyclin-dependent kinase 7 (Homo sapiens) (UniProt P50613); assay: Inhibition of CDK7 (unknown origin) at 10 uM by Ambit Kinomescan binding assay relative to control
[17] = target: c-Jun N-terminal kinase, JNK (Homo sapiens) (UniProt P45983+P53779+P45984); assay: Inhibition of JNK1/2/3 K2 labeling site in human Huh-7 cells at 1 uM by KiNativ Profiling analysis relative to control; assay type: cell-based
[18] = target: Insulin receptor (Homo sapiens) (UniProt P06213); assay: Inhibition of INSR (unknown origin) at 10 uM by Ambit Kinomescan binding assay relative to control
[19] = target: T4, Acylglycerol kinase, mitochondrial (Homo sapiens) (UniProt Q53H12); assay: Inhibition of AGK ATP labeling site in human Huh-7 cells at 1 uM by KiNativ Profiling analysis relative to control; assay type: cell-based
T4 sequence (whole entry): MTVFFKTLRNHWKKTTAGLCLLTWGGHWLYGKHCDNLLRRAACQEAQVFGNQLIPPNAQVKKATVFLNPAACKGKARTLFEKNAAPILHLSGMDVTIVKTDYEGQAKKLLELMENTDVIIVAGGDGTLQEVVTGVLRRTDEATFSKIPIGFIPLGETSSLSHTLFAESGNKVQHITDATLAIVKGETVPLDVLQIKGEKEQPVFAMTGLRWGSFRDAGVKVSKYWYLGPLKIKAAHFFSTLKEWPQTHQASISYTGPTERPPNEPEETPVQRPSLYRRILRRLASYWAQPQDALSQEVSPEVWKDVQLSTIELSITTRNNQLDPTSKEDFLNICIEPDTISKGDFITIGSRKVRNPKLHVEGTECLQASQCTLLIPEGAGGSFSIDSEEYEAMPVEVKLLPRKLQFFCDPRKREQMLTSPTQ

[20] = target: Serine/threonine-protein kinase ATR (Homo sapiens) (UniProt Q13535); assay: Inhibition of ATR in human Huh-7 cells at 1 uM by KiNativ Profiling analysis relative to control; assay type: cell-based
[21] = target: T1, DNA-PK/Ku70/Ku85 (Homo sapiens); assay: Inhibition of DNAPK ATP labeling site harbouring KGGSWIQEINVAEK in human Huh-7 cell lysate at 1 uM by KiNativ Profiling analysis relative to control; assay type: subcellular

Sequence of Dual specificity protein kinase CLK1 (Homo sapiens) (P49759 whole entry, looked up): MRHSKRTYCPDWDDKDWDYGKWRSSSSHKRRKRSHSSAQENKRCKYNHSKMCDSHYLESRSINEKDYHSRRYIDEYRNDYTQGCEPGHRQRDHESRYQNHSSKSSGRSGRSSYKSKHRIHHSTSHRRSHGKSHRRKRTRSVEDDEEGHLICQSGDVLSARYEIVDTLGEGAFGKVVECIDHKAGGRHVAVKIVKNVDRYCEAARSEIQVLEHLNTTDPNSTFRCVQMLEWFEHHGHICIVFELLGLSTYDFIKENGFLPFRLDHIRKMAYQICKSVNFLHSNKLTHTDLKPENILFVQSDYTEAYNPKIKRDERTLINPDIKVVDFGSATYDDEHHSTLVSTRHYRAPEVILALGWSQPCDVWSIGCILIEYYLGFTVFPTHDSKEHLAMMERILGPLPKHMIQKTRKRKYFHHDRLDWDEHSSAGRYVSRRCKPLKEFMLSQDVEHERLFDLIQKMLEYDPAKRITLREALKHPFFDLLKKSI
Sequence of Insulin receptor (Homo sapiens) (P06213 28-758 limits assumed): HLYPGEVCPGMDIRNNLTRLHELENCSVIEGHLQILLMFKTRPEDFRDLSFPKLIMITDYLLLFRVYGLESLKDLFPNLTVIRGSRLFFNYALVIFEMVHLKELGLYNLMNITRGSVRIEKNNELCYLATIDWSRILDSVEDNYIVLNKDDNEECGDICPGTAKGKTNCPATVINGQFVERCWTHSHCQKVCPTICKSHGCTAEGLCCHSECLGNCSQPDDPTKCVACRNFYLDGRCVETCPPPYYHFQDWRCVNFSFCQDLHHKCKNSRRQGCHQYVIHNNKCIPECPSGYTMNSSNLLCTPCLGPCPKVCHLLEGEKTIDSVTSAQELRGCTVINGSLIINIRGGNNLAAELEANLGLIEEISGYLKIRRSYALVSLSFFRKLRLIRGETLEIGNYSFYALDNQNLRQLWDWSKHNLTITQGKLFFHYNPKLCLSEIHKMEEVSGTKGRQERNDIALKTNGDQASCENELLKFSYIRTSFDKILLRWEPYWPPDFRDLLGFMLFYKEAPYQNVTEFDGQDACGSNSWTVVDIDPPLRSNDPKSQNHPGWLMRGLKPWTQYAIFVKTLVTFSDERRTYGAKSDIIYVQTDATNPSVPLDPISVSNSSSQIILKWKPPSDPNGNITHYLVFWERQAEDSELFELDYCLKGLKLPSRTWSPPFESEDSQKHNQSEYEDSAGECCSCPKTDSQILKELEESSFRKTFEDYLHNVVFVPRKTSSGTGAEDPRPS
Sequence of Insulin receptor (Homo sapiens) (P06213 763-1382 limits assumed): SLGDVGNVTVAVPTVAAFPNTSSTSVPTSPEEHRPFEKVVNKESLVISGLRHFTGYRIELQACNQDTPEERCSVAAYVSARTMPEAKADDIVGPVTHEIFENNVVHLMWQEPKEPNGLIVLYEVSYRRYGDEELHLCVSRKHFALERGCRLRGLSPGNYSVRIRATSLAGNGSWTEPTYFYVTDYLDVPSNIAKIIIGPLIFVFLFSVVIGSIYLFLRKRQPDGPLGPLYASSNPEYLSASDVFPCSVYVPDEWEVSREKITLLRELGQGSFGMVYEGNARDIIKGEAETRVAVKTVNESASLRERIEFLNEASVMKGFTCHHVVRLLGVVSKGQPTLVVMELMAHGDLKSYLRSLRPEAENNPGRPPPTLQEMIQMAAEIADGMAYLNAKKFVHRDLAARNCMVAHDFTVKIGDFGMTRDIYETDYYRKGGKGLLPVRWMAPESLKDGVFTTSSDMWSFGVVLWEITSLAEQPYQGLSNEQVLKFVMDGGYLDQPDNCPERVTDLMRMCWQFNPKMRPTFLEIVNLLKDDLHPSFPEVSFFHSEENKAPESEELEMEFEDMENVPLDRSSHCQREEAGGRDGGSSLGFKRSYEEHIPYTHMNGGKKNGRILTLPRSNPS
Sequence of Cyclin-dependent kinase 7 (Homo sapiens) (P50613 whole entry): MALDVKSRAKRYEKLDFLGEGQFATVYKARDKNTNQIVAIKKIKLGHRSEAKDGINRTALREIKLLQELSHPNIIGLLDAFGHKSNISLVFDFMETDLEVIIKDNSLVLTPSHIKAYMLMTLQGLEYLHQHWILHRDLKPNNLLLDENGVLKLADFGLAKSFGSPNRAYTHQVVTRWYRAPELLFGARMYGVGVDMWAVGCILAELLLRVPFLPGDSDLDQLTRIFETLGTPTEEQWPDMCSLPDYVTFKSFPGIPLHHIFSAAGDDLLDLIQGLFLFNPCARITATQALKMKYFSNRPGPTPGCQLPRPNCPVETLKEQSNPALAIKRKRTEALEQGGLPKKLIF
Sequence of Tyrosine-protein kinase FRK (Homo sapiens) (P42685 whole entry): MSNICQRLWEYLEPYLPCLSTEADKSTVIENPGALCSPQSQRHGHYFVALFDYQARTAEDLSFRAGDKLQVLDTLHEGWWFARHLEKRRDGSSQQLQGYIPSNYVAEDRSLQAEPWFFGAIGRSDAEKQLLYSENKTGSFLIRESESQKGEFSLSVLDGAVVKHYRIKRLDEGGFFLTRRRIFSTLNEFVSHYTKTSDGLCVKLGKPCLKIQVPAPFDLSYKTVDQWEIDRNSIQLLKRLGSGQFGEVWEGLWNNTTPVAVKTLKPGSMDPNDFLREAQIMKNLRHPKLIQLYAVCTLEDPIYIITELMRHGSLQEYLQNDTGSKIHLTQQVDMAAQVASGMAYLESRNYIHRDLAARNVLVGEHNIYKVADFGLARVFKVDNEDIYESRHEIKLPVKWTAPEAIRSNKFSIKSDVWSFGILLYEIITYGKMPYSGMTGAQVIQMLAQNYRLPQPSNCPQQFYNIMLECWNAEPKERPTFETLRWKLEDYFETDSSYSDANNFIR
Sequence of Mitogen-activated protein kinase kinase kinase kinase 1 (Homo sapiens) (Q92918 whole entry, looked up): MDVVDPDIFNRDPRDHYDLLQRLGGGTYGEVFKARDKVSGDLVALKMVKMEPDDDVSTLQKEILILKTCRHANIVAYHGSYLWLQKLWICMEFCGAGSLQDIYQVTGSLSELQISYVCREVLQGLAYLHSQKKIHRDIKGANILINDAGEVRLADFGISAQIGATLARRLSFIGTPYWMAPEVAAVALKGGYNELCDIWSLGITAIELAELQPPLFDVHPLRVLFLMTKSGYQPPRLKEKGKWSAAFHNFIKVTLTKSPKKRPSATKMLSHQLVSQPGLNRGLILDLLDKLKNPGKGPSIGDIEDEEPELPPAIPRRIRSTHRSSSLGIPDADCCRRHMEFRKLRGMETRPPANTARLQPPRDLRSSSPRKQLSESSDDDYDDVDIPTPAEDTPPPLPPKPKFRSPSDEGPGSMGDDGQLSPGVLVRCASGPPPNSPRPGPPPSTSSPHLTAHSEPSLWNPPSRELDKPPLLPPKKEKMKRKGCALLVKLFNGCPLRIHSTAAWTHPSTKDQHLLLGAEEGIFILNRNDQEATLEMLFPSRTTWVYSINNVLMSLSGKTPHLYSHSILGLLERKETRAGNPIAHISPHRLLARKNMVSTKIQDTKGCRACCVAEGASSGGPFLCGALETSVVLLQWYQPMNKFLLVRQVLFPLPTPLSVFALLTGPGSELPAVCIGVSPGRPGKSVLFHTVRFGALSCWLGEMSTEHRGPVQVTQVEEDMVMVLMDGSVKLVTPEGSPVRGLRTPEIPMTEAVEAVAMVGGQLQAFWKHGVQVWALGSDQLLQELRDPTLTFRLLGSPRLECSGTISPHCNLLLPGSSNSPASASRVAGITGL
Sequence of Protein-tyrosine kinase 2-beta (Homo sapiens) (Q14289 whole entry, looked up): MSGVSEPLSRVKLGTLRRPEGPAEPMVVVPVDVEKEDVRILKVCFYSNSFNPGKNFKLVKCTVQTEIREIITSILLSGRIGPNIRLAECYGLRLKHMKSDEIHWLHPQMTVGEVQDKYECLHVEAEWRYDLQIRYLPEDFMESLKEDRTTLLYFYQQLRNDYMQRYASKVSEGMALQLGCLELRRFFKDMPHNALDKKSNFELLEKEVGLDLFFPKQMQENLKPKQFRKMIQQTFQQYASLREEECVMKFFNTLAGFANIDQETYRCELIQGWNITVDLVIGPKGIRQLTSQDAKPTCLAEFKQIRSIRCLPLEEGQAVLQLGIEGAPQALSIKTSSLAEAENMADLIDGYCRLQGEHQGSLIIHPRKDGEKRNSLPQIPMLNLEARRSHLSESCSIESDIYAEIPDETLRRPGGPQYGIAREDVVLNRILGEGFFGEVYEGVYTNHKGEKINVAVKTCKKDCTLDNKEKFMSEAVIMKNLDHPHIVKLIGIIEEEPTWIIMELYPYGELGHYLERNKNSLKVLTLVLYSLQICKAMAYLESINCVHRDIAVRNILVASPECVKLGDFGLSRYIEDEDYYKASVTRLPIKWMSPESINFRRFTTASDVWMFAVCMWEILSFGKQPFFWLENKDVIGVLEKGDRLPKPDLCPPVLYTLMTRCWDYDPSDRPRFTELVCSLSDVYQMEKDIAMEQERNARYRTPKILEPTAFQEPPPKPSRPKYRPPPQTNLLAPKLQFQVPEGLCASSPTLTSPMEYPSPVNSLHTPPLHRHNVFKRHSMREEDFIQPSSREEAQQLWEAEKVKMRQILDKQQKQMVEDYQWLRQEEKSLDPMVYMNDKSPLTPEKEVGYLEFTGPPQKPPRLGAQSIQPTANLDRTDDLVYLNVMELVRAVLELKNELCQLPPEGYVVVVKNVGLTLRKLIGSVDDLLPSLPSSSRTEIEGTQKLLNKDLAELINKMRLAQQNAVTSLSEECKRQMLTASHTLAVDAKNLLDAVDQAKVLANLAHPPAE
Sequence of Serine/threonine-protein kinase Nek3 (Homo sapiens) (P51956 whole entry): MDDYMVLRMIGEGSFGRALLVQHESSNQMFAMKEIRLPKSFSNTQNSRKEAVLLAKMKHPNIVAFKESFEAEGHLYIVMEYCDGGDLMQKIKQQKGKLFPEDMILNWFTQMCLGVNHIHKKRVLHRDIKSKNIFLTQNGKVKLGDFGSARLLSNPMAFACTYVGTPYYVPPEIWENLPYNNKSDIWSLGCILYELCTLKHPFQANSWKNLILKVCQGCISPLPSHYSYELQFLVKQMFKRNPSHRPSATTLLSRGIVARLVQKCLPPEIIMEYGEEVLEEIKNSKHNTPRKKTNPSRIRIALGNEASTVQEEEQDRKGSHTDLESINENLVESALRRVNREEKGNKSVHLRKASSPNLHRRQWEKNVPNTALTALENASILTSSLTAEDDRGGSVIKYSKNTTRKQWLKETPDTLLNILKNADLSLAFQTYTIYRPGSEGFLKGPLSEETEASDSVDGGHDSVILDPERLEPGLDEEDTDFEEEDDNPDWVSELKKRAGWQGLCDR

In the case of `CCN1CCN(Cc2ccc(NC(=O)c3ccc(C)c(/C=C/c4cnc5[nH]ccc5c4OC)c3)cc2C(F)(F)F)CC1`, the inhibition [1] is reported as 55%, the inhibition [2] is reported as 3.4% and the inhibition [3] is reported as 19%. For the same molecule, the inhibition [4] was 82%, the inhibition [5] was -9.6% and the residual activity [6] was 79%. For the same molecule, the residual activity [7] was 0.55%, the inhibition [8] was -6.6% and the inhibition [9] was 6.4%.
For `CCN1CCN(Cc2ccc(NC(=O)c3ccc(C)c(Oc4ccnc5[nH]ccc45)c3)cc2C(F)(F)F)CC1`, the inhibition [10] was “inactive”, the inhibition [11] was -7.1% and the inhibition [12] was “inactive”. It also gave an inhibition [13] of 6.6%, an inhibition at 1 µM [14] of 7.6% and an inhibition [15] of 0.7%. For the same molecule, the inhibition [16] was 2.4%, the inhibition [17] was 29.4% and the inhibition [18] was 30%. For the same molecule, the inhibition [19] was “inactive”.
Molecule `CNc1cc(Oc2cc(C(=O)Nc3cc(N4CCN(C)CC4)cc(C(F)(F)F)c3)ccc2C)ncn1` has an inhibition [20] of 29.3% and an inhibition [21] of -5.7%.
